{"source": "patent US6203835A", "about": "“Use of hydroxy acid or a product containing the same in animal feed” (Oy Extracta Ltd., priority 1995, dated 2001)", "key": {"in vivo": {"assay": "in vivo", "conditions": "mouse", "text": "(§1) The acting mechanism of alpha-hydroxy acids on microbes is unclear. It is plausible that these acids act as antimetabolites of the corresponding alpha-amino acids. […] After their resorption into the organism, these acids are metabolized through the same paths as the corresponding alpha-amino acids."}, "physchem": {"assay": "physchem", "conditions": "for pH of maximum buffer capacity: mixture of the acid and a salt of said acid with a strong base", "text": "as §1"}, "micro-organisms": {"system": "micro-organisms", "assay": "Antimicrobial effect of hydroxy acids on micro-organisms in vitro"}, "leucine amino peptidase": {"system": "leucine amino peptidase", "conditions": "cited from earlier work"}, "[1]": {"system": "coliform bacterium strain (104)", "assay": "Effect of hydroxy acids on growth of coliform strain in vitro (turbidity 600 nm)", "assay_type": "cell-based", "conditions": "MRS medium, 37° C.; 0.03, 0.1 and 0.3% tested", "protocol": "(§2) In the example, the sensitivity of microbes isolated from the small intestine of broiler chickens to hydroxy acids were measured under laboratory conditions. For the test, a representative test organism species from each of the bacterium groups mentioned above was chosen. Of the hydroxy acids, HMB (2-hydroxy-3-methyl butric acid) and HMV (2-hydroxy-4-methyl valeric acid) were separately tested using their a mixture of their L- and D-forms as well as the pure L-form. The acids were added to the MRS growth medium of the bacterium so that resulting concentrations were controlled to 0.03, 0.1 and 0.3%. The organism growth was followed at 37° C. by measuring the turbidity of the culture at 600 nm wavelength."}, "Salmonella infantis": {"system": "Salmonella infantis", "assay": "Effect of hydroxy acids on growth of Salmonella infantis in vitro (turbidity 600 nm)", "assay_type": "cell-based", "conditions": "MRS medium, 37° C., 20 hours; 0.03, 0.1 and 0.3% tested", "protocol": "In this example, an investigation was carried out into the sensitivity of Salmonella infantis bacterium representing the genus Salmonella to two hydroxy acids: L-2-hydroxy-3-methyl butyric acid (HMB) and L-2-hydroxy-4-methyl valeric acid (HMV). The acids were added to the MRS growth medium of the bacterium so that resulting concentrations were controlled to 0.03, 0.1 and 0.3%. The organism growth was followed at 37° C. for 20 hours by measuring the turbidity of the culture at 600 nm wavelength."}, "[2]": {"system": "Enterococcus strain (111)", "assay": "Effect of hydroxy acids on growth of Enterococcus strain in vitro (turbidity 600 nm)", "assay_type": "cell-based", "conditions": "MRS medium, 37° C.; 0.03, 0.1 and 0.3% tested", "protocol": "as §2"}}, "note": "Structures can show the parent of a compound that is named as a salt.", "data": [{"compound": "CC(C)C(O)C(=O)O", "note": "(racemic) [Na-salt of d,l-2-hydroxy-3-methyl]", "values": [{"measurement": "LD50", "setting": "in vivo; iv", "value": 1080, "unit": "mg/kg"}]}, {"compound": "CC(C)CC(O)C(=O)O", "note": "(racemic) [Na-salt of d,l-2-hydroxy-4-methyl]", "values": [{"measurement": "LD50", "setting": "in vivo; in vivo", "value": 650, "unit": "mg/kg"}]}, {"compound": "CC(C)C(O)C(=O)O", "note": "(racemic) [d,l-2-hydroxy-3-methyl butyric acid]", "values": [{"measurement": "pKa", "setting": "physchem", "value": 3.8}, {"measurement": "pH of maximum buffer capacity", "setting": "physchem", "value": 3.8, "unit": "pH"}, {"measurement": "number of different micro-organisms on which an antimicrobial effect was shown", "setting": "micro-organisms", "value": "about seventy"}]}, {"compound": "CC(C)CC(O)C(=O)O", "note": "(racemic) [d,l-2-hydroxy-4-methyl valeric acid]", "values": [{"measurement": "pKa", "setting": "physchem", "value": 3.8}, {"measurement": "pH of maximum buffer capacity", "setting": "physchem", "value": 3.8, "unit": "pH"}, {"measurement": "number of different micro-organisms on which an antimicrobial effect was shown", "setting": "micro-organisms", "value": "about seventy"}]}, {"compound": "CC(C)CC(O)C(=O)O", "note": "(stereo not drawn) [2-hydroxy-4-methyl valeric acid]", "values": [{"measurement": "inhibition of leucine amino peptidase", "setting": "leucine amino peptidase", "value": "competitive inhibitor"}]}, {"compound": "CC(C)[C@H](O)C(=O)O", "note": "[HMB, L-2-hydroxy-3-methyl butyric acid]", "values": [{"measurement": "hydroxy acid concentration effectively inhibiting growth", "setting": "[1]", "value": 0.1, "unit": "%"}, {"measurement": "hydroxy acid concentration clearly inhibiting growth", "setting": "Salmonella infantis", "value": 0.1, "unit": "%"}, {"measurement": "growth-inhibiting effect", "setting": "[2]", "value": "clear growth-inhibiting effect"}]}, {"compound": "CC(C)C[C@H](O)C(=O)O", "note": "[HMV, L-2-hydroxy-4-methyl valeric acid]", "values": [{"measurement": "hydroxy acid concentration effectively inhibiting growth", "setting": "[1]", "value": 0.1, "unit": "%"}, {"measurement": "hydroxy acid concentration clearly inhibiting growth", "setting": "Salmonella infantis", "value": 0.1, "unit": "%"}, {"measurement": "growth-inhibiting effect", "setting": "[2]", "value": "clear growth-inhibiting effect"}]}]}
